From US20050215544A1, “Methods of treating HIV infection” (priority 2004, published 2005)

Columns and labels:
HIV-1 LAI [1] = assay: Two-drug combination antiviral assay with Compound 1 (combination indices, Chou and Rideout); type: cell-based; settings: combination with Compound 1; for Combination Indices at 50% HIV Inhibition (Confidence Interval) / Combination Indices at 75% HIV Inhibition (Confidence Interval) / Combination Indices at 90% HIV Inhibition (Confidence Interval): 95% CI in parenthesis; for Overall Result of two-drug combination: all ratios and inhibition levels
Protocol: (§1) Virus and cell lines. The T-cell lines, MT-2 and PM-1 were obtained through the AIDS Research and Reference Reagent Program, NIAID, and were contributed by Dr. D. Richman and Dr. R. Gallo, respectively. Both cell lines were cultured in RPMI 1640 medium supplemented with 10% fetal bovine serum, 2 mM L-glutamine and sub-cultured twice a week. The LAI strain of HIV-1 was obtained from the Fred Hutchinson Cancer Research Center, and the Bal strain was from NIH. Both virus stocks were amplified and titered in MT-2 cells (LAI) and PM-1 cells (Bal) using a virus infectivity assay.
(§2) Drug Susceptibility and Cytotoxicity Assays. For drug susceptibility assays, MT-2 cells were infected with HIV-1 LAI (or PM-1 cells with HIV-1 Bal) at an MOI of 0.005, and seeded into 96-well microtiter plates ([…] cells/ml) containing serial dilutions of test compounds. […] Each drug ratio consisted of an array of 3-fold serial dilutions, and was performed in quadruplicate. The plates were incubated at 37° C./5% CO2. The MT-2 cells infected with HIV-1 LAI were incubated for 5 days. On day-five post-infection, 20 μl from each well was harvested and quantitated by a reverse transcriptase (RT) assay, or in samples involving non-nucleoside RT inhibitors, an MTS assay. The PM-1 cells infected with HIV-1 Bal and used for studying the combinations with CCR5 inhibitors were incubated for six days. On day-six post-infection, 20 μl from each well was harvested, 20- and 50-fold diluted and quantitated by p24 assay. Cytotoxicity assays were performed using uninfected cells, exposed to the same drug combinations, and incubated for six days. Cell viability was determined by an MTS assay. The CC50 values were calculated by using the exponential form of the median effect equation as mentioned below for calculation of EC50.
Analysis of Drug Combination Effects. For determination of CI values, drugs were diluted in a fixed ratio and multiple ratios were analyzed. The drug serial dilutions spanned a range of concentrations near the EC50 value of each compound, so that equivalent antiviral activities could be compared. Concentration-response curves were estimated for each individual drug and every combination using the median-effect equation. The equation was fit using a nonlinear regression routine (Proc Nlin) in PC SAS version 8.01 (SAS Institute Inc., SAS Version 8.01, Cary, NC: SAS Institute Inc., 1990).
(§3) In this equation, Fa stands for “fraction affected,” and represents the fraction of the viral load that has been inactivated. […] ED50 is drug concentration that is expected to reduce the amount of virus by 50%, and m is a parameter that reflects the slope of the concentration-response curve.
To assess antiviral effects of different drug combination treatments, combination indices (CIs) were calculated according to Chou and Rideout. The combination index was computed as CI=[D]1/[Dm]1+[D]2/[Dm]2
In this equation [Dm]1 and [Dm]2 are the concentrations of drugs that would individually produce a specific level of effect, while [D]1 and [D]2 are the concentrations of drugs in combination that would produce the same level of effect.
Theoretically, additivity is implied if the CI is equal to one, synergy if the CI is less than one, and antagonism if the CI is greater than one. […] At best, we can construct a range that contains the likely values for the CI, given the noise in the data. In this report, these ranges are reported in parentheses next to each point estimate of the CI. […] If the range fell entirely above 1.0, we would infer antagonistic behavior. If the range were to include 1.0, we would infer additivity.

HIV-1 LAI [2] = assay: microbe, parasite or virus in culture; settings: Human immunodeficiency virus 1, MT2, 120 h
Protocol: as §1, §2, §3
In carrying out the combination experiments below, the EC50 for Compound 1 and each comparator compound was determined during the course of each study, and used in the subsequent data analysis.

[3] = EC50 ratio 1:1 (Compound 1 to comparator)
[4] = EC50 ratio 1:2.5 (Compound 1 to comparator)
[5] = EC50 ratio 2.5:1 (Compound 1 to comparator)

Row | Compound | Combination Indices at 50% HIV Inhibition (Confidence Interval) (HIV-1 LAI [1]; [3]) | Combination Indices at 75% HIV Inhibition (Confidence Interval) (HIV-1 LAI [1]; [3]) | Combination Indices at 90% HIV Inhibition (Confidence Interval) (HIV-1 LAI [1]; [3]) | Combination Indices at 50% HIV Inhibition (Confidence Interval) (HIV-1 LAI [1]; [4]) | Combination Indices at 75% HIV Inhibition (Confidence Interval) (HIV-1 LAI [1]; [4]) | Combination Indices at 90% HIV Inhibition (Confidence Interval) (HIV-1 LAI [1]; [4]) | Combination Indices at 50% HIV Inhibition (Confidence Interval) (HIV-1 LAI [1]; [5]) | Combination Indices at 75% HIV Inhibition (Confidence Interval) (HIV-1 LAI [1]; [5]) | Combination Indices at 90% HIV Inhibition (Confidence Interval) (HIV-1 LAI [1]; [5]) | Overall Result of two-drug combination (HIV-1 LAI [1]) | Overall Result of two-drug combination (HIV-1 LAI [1]; listed as nevirapine) | EC50 (HIV-1 LAI [2]) [nM] | Overall Result of two-drug combination (HIV-1 LAI [1]; listed as delavirdine)
1 | Cc1ccnc2c1NC(=O)c1cccnc1N2C1CC1 [Nevirapine] | 0.13 (0.11, 0.16) | 0.17 (0.13, 0.22) | 0.24 (0.14, 0.33) | 0.32 (0.23, 0.40) | 0.72 (0.45, 0.99) | 1.69 (0.63, 2.75) | 0.37 (0.29, 0.44) | 0.76 (0.54, 0.98) | 1.60 (0.86, 2.34) | Additive- | additive to synergistic | 127 | 
2 | CC(C)Nc1cccnc1N1CCN(C(=O)c2cc3cc(NS(C)(=O)=O)ccc3[nH]2)CC1 [Delavirdine] | 0.79 (0.55, 1.03) | 0.59 (0.35, 0.84) | 0.45 (0.16, 0.73) | 0.99 (0.72, 1.26) | 0.90 (0.56, 1.23) | 0.81 (0.34, 1.29) | 0.56 (0.28, 0.84) | 0.51 (0.16, 0.86) | 0.45 (0.00, 0.95) | Additive- |  | 99 | additive to synergistic
3 | Nc1nc(=O)n([C@@H]2CS[C@H](CO)O2)cc1F [Emtricitabine] | 0.56 (0.49, 0.62) | 0.39 (0.34, 0.45) | 0.28 (0.22, 0.33) | 0.45 (0.38, 0.51) | 0.62 (0.50, 0.74) | 0.86 (0.59, 1.14) | 0.22 (0.20, 0.24) | 0.32 (0.28, 0.37) | 0.48 (0.38, 0.58) | Synergistic |  | 36 | 
4 | Nc1ccn([C@H]2CC[C@@H](CO)O2)c(=O)n1 [Zalcitabine] | 0.19 (0.15, 0.23) | 0.35 (0.26, 0.45) | 0.75 (0.40, 1.09) | 0.38 (0.31, 0.45) | 0.37 (0.28, 0.47) | 0.42 (0.24, 0.61) | 0.22 (0.18, 0.25) | 0.28 (0.22, 0.34) | 0.38 (0.24, 0.52) | Synergistic |  | 12 | 
5 | Cc1cccc(C)c1OCC(=O)N[C@@H](Cc1ccccc1)[C@@H](O)C[C@H](Cc1ccccc1)NC(=O)[C@H](C(C)C)N1CCCNC1=O [Lopinavir] | 0.68 (0.49, 0.87) | 0.80 (0.48, 1.11) | 0.95 (0.36, 1.55) | 0.74 (0.57, 0.92) | 0.56 (0.37, 0.74) | 0.42 (0.21, 0.64) | 0.65 (0.44, 0.86) | 0.77 (0.43, 1.11) | 0.92 (0.28, 1.57) | Additive- |  | 5 | 
6 | CC(C)(C)NC(=O)[C@@H]1CN(Cc2cccnc2)CCN1C[C@@H](O)C[C@@H](Cc1ccccc1)C(=O)N[C@H]1c2ccccc2C[C@H]1O [Indinavir] | 0.73 (0.58, 0.88) | 0.75 (0.54, 0.97) | 0.77 (0.42, 1.12) | 0.42 (0.22, 0.63) | 0.57 (0.20, 0.95) | 0.78 (0.00, 1.64) | 0.56 (0.43, 0.69) | 0.67 (0.45, 0.89) | 0.81 (0.38, 1.23) | Moderate- |  | 1 | 
7 | CC(C)(C)NC(=O)[C@@H]1C[C@@H]2CCCC[C@@H]2CN1C[C@@H](O)[C@H](Cc1ccccc1)NC(=O)[C@H](CC(N)=O)NC(=O)c1ccc2ccccc2n1 [Saquinavir] | 0.50 (0.40, 0.61) | 0.92 (0.64, 1.19) | 1.71 (0.90, 2.51) | 0.24 (0.21, 0.26) | 0.32 (0.27, 0.36) | 0.43 (0.33, 0.52) | 0.14 (0.12, 0.16) | 0.31 (0.25, 0.37) | 0.68 (0.45, 0.92) | Additive- |  | 4 | 
8 | Nc1nc(NC2CC2)c2ncn([C@H]3C=C[C@@H](CO)C3)c2n1 [Abacavir] | 0.18 (0.13, 0.23) | 0.47 (0.30, 0.64) | 1.23 (0.52, 1.94) | 0.34 (0.27, 0.41) | 0.64 (0.45, 0.83) | 1.22 (0.65, 1.79) | 0.23 (0.19, 0.28) | 0.42 (0.30, 0.53) | 0.75 (0.42, 1.07) | Additive- |  | 528 | 
9 | O=C(C(=O)N1CCN(C(=O)c2ccccc2)CC1)c1c[nH]c2c(-n3ccnn3)ncc(F)c12 [Compound 1, 1-Benzoyl-4-[2-[4-fluoro-7-(1H-1,2,3-triazol-1-yl)-1H-pyrrolo[2,3-c]pyridin-3-yl]-1,2-dioxoethyl]-piperazine] |  |  |  |  |  |  |  |  |  | synergistic or additive-synergistic |  | 0.1 to 0.3 | 
10 | Cc1cn([C@H]2C[C@H](N=[N+]=[N-])[C@@H](CO)O2)c(=O)[nH]c1=O [Zidovudine] | 0.30 (0.17, 0.42) | 0.48 (0.20, 0.76) | 0.78 (0.05, 1.51) | 0.20 (0.16, 0.25) | 0.30 (0.21, 0.40) | 0.45 (0.22, 0.68) | 0.04 (0.03, 0.04) | 0.04 (0.03, 0.05) | 0.04 (0.03, 0.05) | Synergistic |  |  | 
